Measured values from the supplement of paper PMC11003180.

How the values were obtained:
Test in all cases: drug sensitivity score (DSS) from 5-dose viability curve (DSS (area-based score, 0 = no response)); higher = more sensitive (stronger viability inhibition); extreme values may be limits of the assay
[1] = test system: MDCK wild-type - doxycycline; conditions: doxycycline: none; 72 h
How it was run: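 Viability of parental MDCK cells cultured without doxycycline was measured by CellTiter-Glo luminescence and scaled per plate between vehicle and positive controls. The cells had been exposed for 72 h to an oncology library of 528 drugs at five doses (1-10,000 nM). Drug sensitivity scores were calculated from dose-response curve fits in the Breeze pipeline.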

[2] = test system: MDCK p60AmotL2-inducible + doxycycline (p60AmotL2 expressing); conditions: doxycycline: 10 ng/mL; 72 h
How it was run: (§1)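 After 72 h at 37 °C on 384-well plates pre-spotted with 528 oncology drugs at five doses (1-10,000 nM), parental and doxycycline-inducible MDCK cells were assessed; both lines had been given 10 ng/mL doxycycline in the medium before seeding at 2000 cells/well. Viability was taken from CellTiter-Glo luminescence scaled per plate to vehicle and positive controls, and drug sensitivity scores were derived from dose-response fits in the Breeze pipeline.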

[3] = test system: MDCK wild-type + doxycycline; conditions: doxycycline: 10 ng/mL; 72 h
How it was run: as §1

Compound	drug sensitivity score [1]	drug sensitivity score [2]	drug sensitivity score [3]
Cc1cc(Nc2ncc(Cl)c(Nc3ccccc3S(=O)(=O)C(C)C)n2)c(OC(C)C)cc1C1CCNCC1 [Ceritinib]	0	0	0.6
COc1cc2c(NC3CCN(C(C)C)CC3)nc(C3CCCCC3)nc2cc1OCCCN1CCCC1 [UNC0638]	5.2	5	5.3
Cc1nc(=O)c2cc(CN(C)c3ccc(C(=O)N[C@@H](CCC(=O)O)C(=O)O)s3)ccc2[nH]1 [Raltitrexed]	3	5	3.3
CN(C)Cc1ccc(S(=O)(=O)n2ccc(/C=C/C(=O)NO)c2)cc1 [Resminostat]	5	10.4	8.8
Nc1ccn([C@@H]2O[C@H](CO)[C@@H](O)[C@@H]2O)c(=O)n1 [Cytarabine]	1.8	4	2.3
CO[C@H]1C[C@@H]2CC[C@@H](C)[C@@](O)(O2)C(=O)C(=O)N2CCCC[C@H]2C(=O)O[C@H]([C@H](C)C[C@@H]2CC[C@@H](OCCO)[C@H](OC)C2)CC(=O)[C@H](C)/C=C(\C)[C@@H](O)[C@@H](OC)C(=O)[C@H](C)C[C@H](C)/C=C/C=C/C=C/1C [Everolimus]	2.1	8	2.1
COc1cc2c(cc1OC(C)C)[C@H](c1ccc(Cl)cc1)N(c1ccc(N(C)C[C@H]3CC[C@H](N4CCN(C)C(=O)C4)CC3)cc1)C(=O)C2 [NVP-CGM097]	5.4	7.6	5.3
NS(=O)(=O)OC[C@@H]1C[C@@H](n2ccc3c(N[C@H]4CCc5ccccc54)ncnc32)C[C@@H]1O [Pevonedistat]	9	11.7	9.7
CN[C@@H]1C[C@H]2O[C@@](C)([C@@H]1OC)n1c3ccccc3c3c4c(c5c6ccccc6n2c5c31)C(=O)N[C@H]4O [UCN-01]	18.1	14.5	18.5
CC(=O)O[C@]1(C(C)=O)CC[C@H]2[C@@H]3C=C(C)C4=CC(=O)CC[C@]4(C)[C@H]3CC[C@@]21C [Megestrol acetate]	0	0	0
FC(F)(F)c1ccc(CNc2ccc(Cc3c[nH]c4ncc(Cl)cc34)cn2)cn1 [Pexidartinib]	0	0.1	0
CCN(CC)CCOc1ccc(C(=C(Cl)c2ccccc2)c2ccccc2)cc1 [Clomifene]	4.4	5.3	4.7
CC1(C)CNc2cc(NC(=O)c3cccnc3NCc3ccncc3)ccc21 [Motesanib]	0	0	0
CCC1(c2ccc(N)cc2)CCC(=O)NC1=O (stereo unspecified) [Aminoglutethimide]	0	0	0
Cc1nc(-c2cn3c(n2)-c2ccc(-c4cnn(C(C)(C)C(N)=O)c4)cc2OCC3)n(C(C)C)n1 [Taselisib]	0	6.3	0.3
CNC(=O)c1cc(Oc2ccc(NC(=O)Nc3ccc(Cl)c(C(F)(F)F)c3)c(F)c2)ccn1 [Regorafenib]	3.2	5.6	3.2
COCC1(CO)C(=O)C2CCN1CC2 (stereo unspecified) [APR-246]	0	0	0
CO[C@@]12[C@H](COC(N)=O)C3=C(C(=O)C(C)=C(N)C3=O)N1C[C@@H]1N[C@@H]12 [Mitomycin C]	1.2	0	0
Cn1cc(-c2ccc(F)c(C(F)(F)F)c2)nc1C1CCN(c2ncnc3[nH]ncc23)CC1	0	3	0
CO[C@H]1C[C@@H]2CC[C@@H](C)[C@@](O)(O2)C(=O)C(=O)N2CCCC[C@H]2C(=O)O[C@H]([C@H](C)C[C@@H]2CC[C@@H](OC(=O)C(C)(CO)CO)[C@H](OC)C2)CC(=O)[C@H](C)/C=C(\C)[C@@H](O)[C@@H](OC)C(=O)[C@H](C)C[C@H](C)/C=C/C=C/C=C/1C [Temsirolimus]	0	10	2.3
COc1cccc2c1C(=O)c1c(O)c3c(c(O)c1C2=O)C[C@@](O)(/C(CO)=N/NC(=O)CCCCCN1C(=O)C=CC1=O)C[C@@H]3O[C@H]1C[C@H](N)[C@H](O)[C@H](C)O1 [Aldoxorubicin]	4.5	11.2	8.6

Compound	drug sensitivity score [1]	drug sensitivity score [2]	drug sensitivity score [3]
CC[C@H](Nc1ncnc2[nH]cnc12)c1nc2cccc(F)c2c(=O)n1-c1ccccc1 [Idelalisib]	0	0.7	0
CO[C@H]1C[C@@H]2CC[C@@H](C)[C@@](O)(O2)C(=O)C(=O)N2CCCC[C@H]2C(=O)O[C@H]([C@H](C)C[C@@H]2CC[C@@H](O)[C@H](OC)C2)CC(=O)[C@H](C)/C=C(\C)[C@@H](O)[C@@H](OC)C(=O)[C@H](C)C[C@H](C)/C=C/C=C/C=C/1C [Sirolimus]	1.9	7.6	2.3
C#Cc1cccc(Nc2ncnc3cc4c(cc23)OCCOCCOCCO4)c1 [Icotinib]	0	7.8	2.4
C/C(=C\c1csc(C)n1)[C@@H]1C[C@@H]2O[C@]2(C)CCC[C@H](C)[C@H](O)[C@@H](C)C(=O)C(C)(C)[C@@H](O)CC(=O)N1 [Ixabepilone]	5.4	5	5
CN1CCN(c2nc(C3=C(c4c[nH]c5ccccc45)C(=O)NC3=O)c3ccccc3n2)CC1 [Sotrastaurin]	0	0.3	0
CC[C@@H]1C(=O)OC[C@@H]1Cc1cncn1C [Pilocarpine]	0	0	0
COC[C@H](NC(=O)c1cnc(C)s1)C(=O)N[C@@H](COC)C(=O)N[C@@H](Cc1ccccc1)C(=O)[C@@]1(C)CO1 [Oprozomib]	17.9	17.4	17.6
COc1cc(NS(C)(=O)=O)ccc1Nc1c2ccccc2nc2ccccc12 [Amsacrine]	7.6	15.3	8.8
CC1(C)OCCn2c1nc1c(N3CCOCC3)nc(-c3cnc(N)nc3)nc12 [GDC-0084]	7	14.9	10.2
CN(CC(=O)N(Cc1ccc(C2CCCCC2)cc1)c1ccc(C(=O)O)cc1)S(=O)(=O)c1c(F)c(F)c(F)c(F)c1F [SH-4-54]	5.1	3.7	3.9
COc1ccc(COc2cc3oc(=O)c4cc(C(C)O)ccc4c3cc2OC)cc1 (stereo unspecified) [Palomid-529]	0	0.1	0
CN1CCN(C2CCC(n3cc(-c4ccc(Oc5ccccc5)cc4)c4c(N)ncnc43)CC2)CC1 (stereo unspecified)	7	14	9.4
C[C@]12CC[C@H](O)CC1=CC[C@@H]1[C@@H]2CC[C@]2(C)C(c3cccnc3)=CC[C@@H]12 [Abiraterone]	0	0	0
O=C1CN2Cc3c(ccc(Cl)c3Cl)N=C2N1 [Anagrelide]	0	0	0
COc1ccc2[nH]cc(/C=C3\C(=O)Nc4ccc(NC(=O)CCN5CCCCC5)cc43)c2c1	6	9.4	7.3
N#CC1(c2ccc(NC(=O)c3cccnc3NCc3ccncc3)cc2)CCCC1 [Apatinib]	0	0	2.7
CCN(CC)Cc1ccc2cc(COC(=O)Nc3ccc(C(=O)NO)cc3)ccc2c1 [Givinostat]	4.8	7.1	4.5
Cn1nccc1Nc1nccc(-c2ccn([C@H](CO)c3ccc(Cl)c(F)c3)c(=O)c2)n1 [Ravoxertinib]	0	0.2	0
O=C(Nc1c[nH]nc1-c1nc2ccc(CN3CCOCC3)cc2[nH]1)NC1CC1 [AT9283]	0	6.5	2
CN1CCN(C(=O)c2ccc3cc(CCNc4ncnc5ccc(C#N)cc45)ccc3c2)CC1 [Senexin B]	0	0.6	0.1
CC(C)(C)NC(=O)[C@H]1CC[C@H]2[C@@H]3CC[C@H]4NC(=O)C=C[C@]4(C)[C@H]3CC[C@]12C [Finasteride]	0	0	0
